Results as given in patent publication US8415357B2 (Canbas Co., Ltd., priority 2007, dated 2013).

Tested on: Jurkat cells
Experiment: Adaptation to G2 cell cycle arrest (G1 increment) in X-ray pre-arrested Jurkat cells, flow cytometry
Assay type: cell-based, human
Details: Homo sapiens, Jurkat, 24 h, Table 1; concentration causing half-maximal increase of % cells in G1 phase (G1 increment); Jurkat pre-arrested by 10 Gy X-ray, 24 hours with compound
Procedure, shortened: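 Jurkat cells were G2-arrested by 10 Gy X-ray irradiation and held 24 h in 10% FCS/RPMI1640 at 37 °C. They were then exposed to compounds for a further 24 h. Propidium iodide staining and flow cytometry gave the %G1 cells, and IC50 (μM) is the concentration giving a half-maximal G1 increment.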

Row | SMILES | IC50 [nM]
1 | CSCc1cc(C(F)(F)F)ccc1NN1C(=O)C(C)=C(C)C1=O [Compound S00499] | 5000
2 | CC1=C(C)C(=O)N(Nc2cccc(C(F)(F)F)c2)C1=O [Compound S00305] | 5000
3 | CC1=C(C)C(=O)N(Nc2cc(C(F)(F)F)cc(C)n2)C1=O [Compound S00069] | 5000
4 | CC1=C(C)C(=O)N(N(C)c2cc(C(F)(F)F)cc(C)n2)C1=O [Compound S00084] | 5000
5 | O=C1C2=C(CCCC2)C(=O)N1Nc1ccc(C(F)(F)F)c(Cl)n1 [Compound S00186, 2-{[6-chloro-5-(trifluoromethyl)-2-pyridyl]amino}-4,5,6,7-tetrahydroisoindole-1,3-dione] | 630
6 | CC1=C(C)C(=O)N(Nc2cccc(C(C)(C)C)c2)C1=O [Compound S00627] | 2000
7 | CC1=C(C)C(=O)N(Nc2nc3ccc(Cl)cc3s2)C1=O [Compound S00590] | 5000
8 | CC1=C(C)C(=O)N(Nc2cccc3ccccc23)C1=O [Compound S00475] | 3750
9 | COC1=C(C)C(=O)N(Cc2ccc(C(F)(F)F)cc2)C1=O [Compound S00410] | 10000
10 | CC1=C(C)C(=O)N(Cc2ccc(C(F)(F)F)cc2Cl)C1=O [Compound S00408] | 10000
11 | CC1=C(C)C(=O)N(Nc2ccc(C(F)(F)F)cn2)C1=O [Compound S00073] | 2500
12 | CC1=C(C)C(=O)N(Nc2cc(Cl)ccc2C)C1=O [Compound S00319] | 10000
13 | O=C1C2=C(CCCC2)C(=O)N1Nc1ccc(C(F)(F)F)cn1 [Compound S00200] | 5000
14 | CC1C(=O)N(Nc2ccc(C(F)(F)F)cn2)C(=O)C1Sc1ccccc1 (stereo not drawn) [Compound S00145] | 30000
15 | CC1=C(C)C(=O)N(Cc2ccc(Cl)c(C(F)(F)F)c2)C1=O [Compound S00201] | 10000
16 | CC1=C(C)C(=O)N(Nc2ccc(C)cc2C)C1=O [Compound S00294] | 5000
17 | CC1=C(C)C(=O)N(Nc2ccc(C(C)(C)C)cc2)C1=O [Compound S00479] | 2500
18 | CC1=C(C)C(=O)N(Nc2nc3ccc(F)cc3s2)C1=O [Compound S00454] | 4000

Second part, the compound after the results:

Row | IC50 [nM] | SMILES
19 | 60000 | CC1=C(C)C(=O)N(N2CCc3cc(C)ccc32)C1=O [Compound S00662]
20 | 1250 | CC1=C(C)C(=O)N(Nc2nc3c(Cl)cccc3s2)C1=O [Compound S00756]
21 | 10000 | CC1=C(C)C(=O)N(Nc2ccc3ccccc3c2)C1=O [Compound S00651]

Same assay, conditions: Homo sapiens, Jurkat, 24 h, Table 2; concentration causing half-maximal increase of % cells in G1 phase (G1 increment); Jurkat pre-arrested by 10 Gy X-ray, 24 hours with compound

Row | SMILES | IC50 [nM]
22 | O=C1C2=C(CCCC2)C(=O)N1Nc1ccc(C(F)(F)F)c(Cl)n1 [Compound S00186, 2-{[6-chloro-5-(trifluoromethyl)-2-pyridyl]amino}-4,5,6,7-tetrahydroisoindole-1,3-dione] | 625
23 | CC1=C(C)C(=O)N(Nc2cc(CN3CCC(NC(=O)OC(C)(C)C)C3)c3ccc(Br)cc3n2)C1=O (stereo not drawn) [Compound S01864, N-[1-({2-[(3,4-dimethyl-2,5-dioxoazolinyl)amino]-7-bromo(4-quinolyl)}methyl)pyrrolidin-3-yl] (tert-butoxy)carboxamide] | 468

The remaining lines, values ahead:

Row | IC50 [nM] | SMILES
24 | 500 | CC1=C(C)C(=O)N(Nc2ccc(C(F)(F)F)c(C#N)n2)C1=O [Compound S01475, 6-[(3,4-dimethyl-2,5-dioxoazolinyl)amino]-3-(trifluoromethyl)pyridine-2-carbonitrile]
25 | 625 | CC1=C(CCC(=O)N(C)c2ccccc2)C(=O)N(Nc2ccc(C(F)(F)F)c(Cl)n2)C1=O [Compound S01759, 3-(1-{[6-chloro-5-(trifluoromethyl)(2-pyridyl)]amino}-4-methyl-2,5-dioxoazolin-3-yl)-N-methyl-N-phenylpropanamide]
26 | 450 | CC1=C(C)C(=O)N(Nc2cc(Cl)c(C(F)(F)F)c(-c3ccccc3)n2)C1=O [Compound S01734]
27 | 625 | CC1=C(C)C(=O)N(Nc2cccc(-c3cccc(C(F)(F)F)c3)n2)C1=O [Compound S01691, 3,4-dimethyl-1-({6-[3-(trifluoromethyl)phenyl](2-pyridyl)}amino)azoline-2,5-dione]
28 | 300 | CC1=C(C)C(=O)N(Nc2cc(Cl)c3ccc(Br)cc3n2)C1=O [Compound S01311, 1-[(7-bromo-4-chloro(2-quinolyl))amino]-3,4-dimethylazoline-2,5-dione]
29 | 200 | CC1=C(C)C(=O)N(Nc2ccc(C(F)(F)F)c(-c3ccccc3)n2)C1=O [Compound S01266, 3,4-dimethyl-1-{[6-phenyl-5-(trifluoromethyl)(2-pyridyl)]amino}azoline-2,5-dione]
30 | 625 | CC(=O)N(c1ccc(C(F)(F)F)c(Cl)n1)N1C(=O)C(C)=C(CO)C1=O [Compound S01820, N-[6-chloro-5-(trifluoromethyl)(2-pyridyl)]-N-[4-(hydroxymethyl)-3-methyl-2,5-dioxoazolinyl]acetamide]
31 | 200 | CC1=C(C)C(=O)N(Nc2cc(Cl)c3cccc(Cl)c3n2)C1=O [Compound S01005, 1-[(4,8-dichloro(2-quinolyl))amino]-3,4-dimethylazoline-2,5-dione]
32 | 625 | CC1=C(C)C(=O)N(Nc2cc(CN3CCN(C(=O)OCc4ccccc4)CC3)c3ccc(Br)cc3n2)C1=O [Compound S01683, Phenylmethyl4-({2-[(3,4-dimethyl-2,5-dioxoazolinyl)amino]-7-bromo-4-quinolyl}methyl)piperazinecarboxylate]
33 | 78 | CON(C)C(=O)CCC1=C(C)C(=O)N(Nc2ccc(C(F)(F)F)c(Cl)n2)C1=O [Compound S01796, 3-(1-{[6-chloro-5-(trifluoromethyl)(2-pyridyl)]amino}-4-methyl-2,5-dioxoazolin-3-yl)-N-methoxy-N-methylpropanamide]
34 | 312 | CC1=C(C)C(=O)N(Nc2cc(CN3CCN(C(=O)c4ccc(N(C)C)cc4)CC3)c3ccc(Br)cc3n2)C1=O [Compound S01880, 1-({4-[(4-{[4-(dimethylamino)phenyl]carbonyl}piperazinyl)methyl]-7-bromo (2-quinolyl)}amino)-3,4-dimethylazoline-2,5-dione]
35 | 625 | CC1=C(C)C(=O)N(Nc2ccc(Br)c3ccccc23)C1=O [Compound S00942, 1-[(4-bromonaphthyl)amino]-3,4-dimethylazoline-2,5-dione]
36 | 156 | CCOC(=O)C(CC1=C(C)C(=O)N(Nc2ccc(C(F)(F)F)c(Cl)n2)C1=O)C(=O)OCC [Compound S01712, Diethyl 2-[(1-{[6-chloro-5-(trifluoromethyl)(2-pyridyl)]amino}-4-methyl-2,5-dioxoazolin-3-yl)methyl]propane-1,3-dioate]
37 | 50 | CCOC(=O)CCC1=C(C)C(=O)N(Nc2ccc(C(F)(F)F)c(Cl)n2)C1=O [Compound S01861, Ethyl 3-(1-{[6-chloro-5-(trifluoromethyl)(2-pyridyl)]amino}-4-methyl-2,5-dioxoazolin-3-yl) propanoate]
38 | 625 | CC1=C(C)C(=O)N(Nc2cc(Cl)c3cccc(C)c3n2)C1=O [Compound S00871, 1-[(4-chloro-8-methyl(2-quinolyl))amino]-3,4-dimethylazoline-2,5-dione]
39 | 78 | CC1=C(C)C(=O)N(Nc2cc(Cl)c3ccc(Cl)c(Cl)c3n2)C1=O [Compound S01078, 3,4-dimethyl-1-[(4,7,8-trichloro(2-quinolyl))amino]azoline-2,5-dione]
40 | 468 | CC1=C(C)C(=O)N(Nc2cc(CN3CCN(C(=O)c4ccc(F)cc4)CC3)c3ccc(Br)cc3n2)C1=O [Compound S01877, 1-{[7-bromo-4-({4-[(4-fluorophenyl)carbonyl]piperazinyl}methyl) (2-quinolyl)]amino}-3,4-dimethylazoline-2,5-dione]
41 | 156 | CCN(CC)C(=O)CCC1=C(C)C(=O)N(Nc2ccc(C(F)(F)F)c(Cl)n2)C1=O [Compound S01711, 3-(1-{[6-chloro-5-(trifluoromethyl)(2-pyridyl)]amino}-4-methyl-2,5-dioxoazolin-3-yl)-N,N-diethylpropanamide]

Same assay, conditions: Homo sapiens, Jurkat, 24 h, Table 3; concentration causing half-maximal increase of % cells in G1 phase (G1 increment); Jurkat pre-arrested by 10 Gy X-ray, 24 hours with compound

Row | IC50 [nM] | SMILES
42 | 40 | CCCOCCC1=C(C)C(=O)N(Nc2ccc(C(F)(F)F)c(Cl)n2)C1=O [Compound S04034, 1-{[6-chloro-5-(trifluoromethyl)(2-pyridyl)]amino}-3-methyl-4-(2-propoxyethyl)azoline-2,5-dione]
43 | 156 | CCCCC1=C(C)C(=O)N(Nc2ccc(C(F)(F)F)c(Cl)n2)C1=O [Compound S03448, 3-butyl-1-{[6-chloro-5-(trifluoromethyl) (2-pyridyl)]amino}-4-methylazoline-2,5-dione]
44 | 30 | CC1=C(CC(=O)OC(C)(C)C)C(=O)N(Nc2ccc(C(F)(F)F)c(Cl)n2)C1=O [Compound S02225, tert-butyl 2-(1-{[6-chloro-5-(trifluoromethyl) (2-pyridyl)]amino}-4-methyl-2,5-dioxoazolin-3-yl)acetate]
45 | 120 | COCCOCC1=C(C)C(=O)N(Nc2ccc(C(F)(F)F)c(Cl)n2)C1=O [Compound S03742, 1-{[6-chloro-5-(trifluoromethyl)(2-pyridyl)]amino}-3-[(2-methoxyethoxy)methyl]-4-methylazoline-2,5-dione]

Row | SMILES | IC50 [nM]
46 | CCCCOCC1=C(C)C(=O)N(Nc2ccc(C(F)(F)F)c(Cl)n2)C1=O [Compound S03518, 3-(butoxymethyl)-1-{[6-chloro-5-(trifluoromethyl)(2-pyridyl)]amino}-4-methylazoline-2,5-dione] | 20

Same assay, conditions: Table 2; concentration causing half-maximal increase of % cells in G1 phase (G1 increment); Jurkat pre-arrested by 10 Gy X-ray, 24 hours with compound

Row | IC50 [nM] | SMILES
47 | 78 | CC1=C(C)C(=O)N(Nc2cc(CN3CCN(C(=O)OC(C)(C)C)CC3)c3ccc(Br)cc3n2)C1=O [Compound S01589, tert-butyl 4-({2-[(3,4-dimethyl-2,5-dioxoazolinyl)amino]-7-bromo-4-quinolyl}methyl)piperazinecarboxylate]

Tested on: ARH-77 cells
Experiment: Survival of SCID mice with xenografts of ARH-77 cells
Details: administered intraperitoneally or orally to SCID mice with ARH-77 xenografts
Description: For the experiment shown in FIG. 6, mice received 1.9×10^6 ARH-77 cells by intraperitoneal transplantation. […] Mice treated with dexamethasone (“Dexa”) received an intraperitoneal injection of 2 mg/kg dexamethasone. Vehicle treated control animals received intraperitoneal vehicle injection. Each injection was performed on day 1, day 2 and day 3 after transplantation of ARH-77 cells.
For the experiment shown in FIG. 7, mice received 0.8×10^6 ARH-77 cells by intraperitoneal transplantation.
For the experiment shown in FIG. 8, mice received 4.1×10^6 ARH-77 cells by intraperitoneal transplantation.

Row | SMILES | cytotoxicity against normal cells (the mouse graft host)
48 | CCCCOCC1=C(C)C(=O)N(Nc2ccc(C(F)(F)F)c(Cl)n2)C1=O [Compound S03518, 3-(butoxymethyl)-1-{[6-chloro-5-(trifluoromethyl)(2-pyridyl)]amino}-4-methylazoline-2,5-dione] | no detectable cytotoxicity against normal cells
